# Measured values published in article doi:10.1101/2022.01.05.475095v1 (biorxiv, 2022).
# Molecular target: T1, SARS-CoV-2 PLpro (Severe acute respiratory syndrome coronavirus 2, UniProt P0DTD1)
# Assay: biochemical
# Conditions: read-out: PLpro % inhibition at 10 µM
row,Structure (SMILES),inhibition at 10 µM [%]
1,CC1(C)OC2=C(C(=O)C(=O)c3ccccc32)C1n1cc(-c2ccccc2)nn1 (stereo not shown) [compound 159],100 ± 1
2,CC1(C)OC2=C(C(=O)C(=O)c3ccccc32)C1n1cc(CNC2=CC(=O)c3ccccc3C2=O)nn1 (stereo not shown) [compound 189],100
3,CC1(C)OC2=C(C(=O)C(=O)c3ccccc32)C1n1cc(CNC2=C(Br)C(=O)c3ccccc3C2=O)nn1 (stereo not shown) [compound 191],93 ± 0.7
4,CC(=O)c1ccc(N(Cc2cn(S(=O)(=O)c3ccc(C)cc3)nn2)C2=CC(=O)c3ccccc3C2=O)cc1 [compound 318],9 ± 5
5,"Cc1ccc(S(=O)(=O)n2cc(CNC3=C(Cl)C(=O)c4ccccc4C3=O)nn2)cc1 [compound 320, 320]",31 ± 6
6,"Cc1ccc(S(=O)(=O)n2cc(CNC3=C(Br)C(=O)c4ccccc4C3=O)nn2)cc1 [compound 321, 321]",17 ± 0.2
7,O=C1C(Sc2ccccc2)=C(Sc2ccccc2)C(=O)c2ccccc21 [compound 379],0
8,"O=C1C(Sc2ccc(Br)cc2)=C(Sc2ccc(Br)cc2)C(=O)c2ccccc21 [compound 380, 380]",12 ± 6
9,COc1ccc(SC2=C(Sc3ccc(OC)cc3)C(=O)c3ccccc3C2=O)cc1 [compound 382],0
10,"CC(=O)NC1=CC(=O)c2cccc(O)c2C1=O [compound 414, 414]",38 ± 2
11,"Cc1ccc(S(=O)(=O)c2cccc3c2C(=O)c2ccccc2C3=O)cc1 [compound 477, 477]",0
12,"CC1(C)OC2=C(CC1Br)C(=O)C(=NNc1ccccc1)c1ccccc12 (stereo not shown) [compound 666, 666]",0
13,"CC1(C)CC2=C(O1)c1ccccc1C(=NNc1ccccc1)C2=O [compound 673, 673]",4 ± 4

# Molecular target: T1, SARS-CoV-2 PLpro
# Assay: fluorogenic Z-RLRGG-AMC cleavage assay
# Assay type: biochemical
# Conditions: read-out: % inhibition at 10 μM
row,Structure (SMILES),inhibition at 10 µM [%]
1,"Cc1ccc(S(=O)(=O)n2cc(CN(C3=CC(=O)c4ccccc4C3=O)c3ccc(Br)cc3)nn2)cc1 [compound 314, 314]",55 ± 7
2,"Cc1ccc(S(=O)(=O)n2cc(CNC3=CC(=O)c4ccccc4C3=O)nn2)cc1 [compound 319, 319]",69 ± 3
3,"CC(=O)NC1=CC(=O)c2c(cccc2[N+](=O)[O-])C1=O [compound 415, 415]",63 ± 9
